Series [1] can be described thus: Storage stability of staining compound solution in DMSO. It is filed as physicochemical. The note with it: 10 ng/mL in DMSO, closed glass container, normal temperature, 1 month; rate of change of absorbance and fluorescence intensity. On the procedure: A 10 ng/mL solution of each of the staining compounds of Labelled Examples 1 to 78 and Labelled Comparative Examples 1 and 2 in DMSO was prepared, charged into a well-closed container made of glass, and left to stand still at normal temperature for 1 month. The absorbance and the fluorescence intensity at the time of the start of a storage stability test were measured at a given wavelength, and their rates of change were examined (+++: rates of change of the absorbance and the fluorescence intensity are less than 5%, and thus, the storage stability is highly excellent; ++: rates of change of the absorbance and fluorescence intensity are 5 to 15%, and thus, the storage stability is excellent; and −: rates of change of the absorbance and fluorescence intensity are more than 15%, and thus, the storage stability is poor).

Series [2] relates to Zebrafish juveniles. The series can be described thus: In vivo labelling of Zebrafish juveniles with probe for biological specimen. Further details: key to Staining property: +++: stained; −: no stained; key to Fluorescence sensitivity: +++: strongly observed; ++: moderately observed; +: weakly observed; −: no stained. The note with it: 1 hour; for Site(s) to be labelled: 10 ng/mL in water, stereoscopic microscope; for Fluorescence sensitivity / Staining property: 10 ng/mL; for Fluorescence sensitivity: fluorescence intensity visually evaluated; for Staining property: visually evaluated. On the procedure:
Five juveniles of Zebrafish were put into one well of a well plate together with rearing water. After rearing water had been discharged, 1 mL of distilled water was added to the well, and a solution of a staining compound (1) in DMSO was further added thereto so as to achieve a concentration of 10 ng/mL, followed by gentle stirring (pipetting). Further, Egg Water was prepared by dissolving artificial seawater SEALIFE (manufactured by Marinetech Co., Ltd.) in distilled water at a concentration of 60 mg/L. After the whole had been left to stand for 1 hour, distilled water in the well was discharged and replaced by 1 mL of fresh Egg Water. In addition, such an operation that Egg Water was discharged and replaced by 1 mL of fresh Egg Water was repeated twice. One of the juveniles was taken out from the well onto a dish, supplemented with 100 μL of a 3% methylcellulose aqueous solution to fix the movement of the juvenile, and photographed with a stereoscopic microscope (MZ10F: manufactured by Leica Microsystems K.K.).
The same operation as that in Example 1 was performed except that the staining compound (1) used in Example 1 was changed to any one of the staining compounds described in Table 1.
The same operation as that in Example 1 was performed except that the staining compound (1) used in Example 1 was changed to any one of indocyanine green (ICG) and fluorescein.
The staining property of each of the staining compounds of Labelled Examples 1 to 78 and Labelled Comparative Examples 1 and 2 was visually evaluated (+++: stained and −: no stained).
The fluorescence intensity of each of the staining compounds of Labelled Examples 1 to 78 and Labelled Comparative Examples 1 and 2 was visually evaluated (+++: strongly observed, ++: moderately observed, +: weakly observed, and −: no stained).

A short description of series [3]: Excitation and fluorescence emission wavelength measurement. The series is classed as physicochemical. Details: Stokes shift (λem − λex): unit not given here. The note with it: aqueous solution: 10 mg/mL solution in DMSO diluted 500-fold with purified water. On the procedure:
It should be noted that the excitation wavelength and the fluorescence emission wavelength of the staining compound were determined by measuring an aqueous solution, which had been obtained by diluting 500-fold a 10 mg/mL solution of the staining compound in DMSO with purified water, with a fluorescence spectrophotometer FL 4500 manufactured by Hitachi High-Technologies Corporation.

Data on 13 molecules can be found in patent US9801960B2, “Probe for a biological specimen and labelling method and screening method using the probe” (CANON KABUSHIKI KAISHA, priority 2008, dated 2017).

Structures are written as SMILES.

Turning to `COc1ccc(N2c3ccc(/C=C4\C(=O)N(c5ccc(C(=O)O)cc5)N=C4C)cc3C3CCCC32)cc1` (stereo not shown) [Dye 54], the Storage stability result in series [1] was “+++ (rates of change of the absorbance and the fluorescence intensity are less than 5%, and thus, the storage stability is highly excellent)”. Moreover, in series [2], the “Site(s) to be labelled” value was “gastrointestinal tract and nose”; the Fluorescence sensitivity result is recorded as “++”; the Staining property result is “+++”. Also, in series [3], the Excitation wavelength λex was found to be 610 nm, the Fluorescence emission wavelength λem is 633 nm and the “Stokes shift (λem − λex)” value is listed as 23.

Take `COc1ccc(N2c3ccc(/C=C(\C#N)C(=O)O)cc3C3CCCC32)cc1` (stereo not shown) [Dye 56]: the Storage stability entry in series [1] is “+++ (rates of change of the absorbance and the fluorescence intensity are less than 5%, and thus, the storage stability is highly excellent)”. In series [2], the “Site(s) to be labelled” value was “liver, gallbladder, and gastrointestinal tract”; the Fluorescence sensitivity entry is recorded as “+++”; the Staining property result is “+++”. In series [3], the Excitation wavelength λex is 437 nm, the Fluorescence emission wavelength λem is 585 nm and the “Stokes shift (λem − λex)” value amounted to 148.

In the case of `CCN1C(=O)/C(=c2\s/c(=C/c3cc(Br)c4c(c3)C3CCCC3N4c3ccc(Br)cc3)c(=O)n2CC(=O)O)SC1=S` (stereo not shown) [Dye 59], in series [1], the Storage stability result was “+++ (rates of change of the absorbance and the fluorescence intensity are less than 5%, and thus, the storage stability is highly excellent)”. Moreover, in series [2], the “Site(s) to be labelled” value is “blood vessel, nose, and gastrointestinal tract”; the Fluorescence sensitivity result is listed as “+++”; the Staining property result is “+++”. In series [3], the Excitation wavelength λex was 559 nm, the Fluorescence emission wavelength λem was determined as 671 nm and the “Stokes shift (λem − λex)” value is 112.

For the molecule `CCCCN1C(=O)/C(=c2\s/c(=C/c3ccc4c(c3)C3CCCC3N4c3ccccc3)c(=O)n2CC(=O)OCC)SC1=S` (stereo not shown) [Dye 60], the Storage stability entry in series [1] was “+++ (rates of change of the absorbance and the fluorescence intensity are less than 5%, and thus, the storage stability is highly excellent)”. Moreover, in series [2], the “Site(s) to be labelled” value is reported as “gastrointestinal tract”, the Fluorescence sensitivity entry is on record as “++” and the Staining property result is recorded as “+++”. In addition, in series [3], the Excitation wavelength λex was determined as 563 nm, the Fluorescence emission wavelength λem was 609 nm and the “Stokes shift (λem − λex)” value was found to be 46.

On to `CCCCN1C(=O)/C(=c2\s/c(=C/c3ccc4c(c3)C3CCCC3N4c3ccc(OC)cc3)c(=O)n2CC(=O)OCC)SC1=S` (stereo not shown) [Dye 62], for which, in series [1], the Storage stability entry is “+++ (rates of change of the absorbance and the fluorescence intensity are less than 5%, and thus, the storage stability is highly excellent)”. For the same molecule, in series [2], the “Site(s) to be labelled” value is given as “gastrointestinal tract”, the Fluorescence sensitivity entry is “+++” and the Staining property result is “+++”. In series [3], the Excitation wavelength λex was 450 nm, the Fluorescence emission wavelength λem came to 527 nm and the “Stokes shift (λem − λex)” value was 77.

For the molecule `O=C(O)Cn1c(=O)/c(=C\c2ccc3c(c2)C2CCCC2N3c2ccccc2)s/c1=C1/SC(=S)N(Cc2ccccc2)C1=O` (stereo not shown) [Dye 66], the Storage stability entry in series [1] is “++ (rates of change of the absorbance and fluorescence intensity are 5 to 15%, and thus, the storage stability is excellent)”. Further, in series [2], the “Site(s) to be labelled” value was “blood vessel, nose, and gastrointestinal tract”; the Fluorescence sensitivity result was “++”; the Staining property result is reported as “+++”. In series [3], the Excitation wavelength λex worked out at 586 nm, the Fluorescence emission wavelength λem stood at 661 nm and the “Stokes shift (λem − λex)” value was found to be 75.

With `COc1ccc(N2c3ccc(/C=c4/s/c(=C5/SC(=S)N(Cc6ccccc6)C5=O)n(CC(=O)O)c4=O)cc3C3CCCC32)cc1` (stereo not shown) [Dye 67], the Storage stability result in series [1] is “+++ (rates of change of the absorbance and the fluorescence intensity are less than 5%, and thus, the storage stability is highly excellent)”. For the same molecule, in series [2], the “Site(s) to be labelled” value is reported as “blood vessel”, the Fluorescence sensitivity result is “+++” and the Staining property result is listed as “+++”. Moreover, in series [3], the Excitation wavelength λex stood at 568 nm, the Fluorescence emission wavelength λem was determined as 712 nm and the “Stokes shift (λem − λex)” value is given as 144.

As for `CCN1C(=O)/C(=c2\s/c(=C/c3ccc4c(c3)C3CCCC3N4c3ccc(OC)cc3)c(=O)n2CC)SC1=S` (stereo not shown) [Dye 68], in series [1], the Storage stability entry is “+++ (rates of change of the absorbance and the fluorescence intensity are less than 5%, and thus, the storage stability is highly excellent)”. In series [2], the “Site(s) to be labelled” value is listed as “gastrointestinal tract”, the Fluorescence sensitivity entry was “+++” and the Staining property entry was “+++”. Further, in series [3], the Excitation wavelength λex was 602 nm, the Fluorescence emission wavelength λem stood at 667 nm and the “Stokes shift (λem − λex)” value is listed as 65.

In the case of `C=CCN1C(=O)/C(=c2\s/c(=C/c3ccc4c(c3)C3CCCC3N4c3ccc(C=C(c4ccccc4)c4ccccc4)cc3)c(=O)n2CC(=O)OCC)SC1=S` (stereo not shown) [Dye 69], the Storage stability result in series [1] is “+++ (rates of change of the absorbance and the fluorescence intensity are less than 5%, and thus, the storage stability is highly excellent)”. Besides, in series [2], the “Site(s) to be labelled” value is “gastrointestinal tract”, the Fluorescence sensitivity result is “+++” and the Staining property result is “+++”. In addition, in series [3], the Excitation wavelength λex came to 600 nm, the Fluorescence emission wavelength λem is 656 nm and the “Stokes shift (λem − λex)” value is reported as 56.

For `COc1ccc(N2c3ccc(/C=C/c4sc5ccccc5[n+]4CCC(=O)O)cc3C3CCCC32)cc1` (stereo not shown) [Dye 72], the Storage stability entry in series [1] was “+++ (rates of change of the absorbance and the fluorescence intensity are less than 5%, and thus, the storage stability is highly excellent)”. In series [2], the “Site(s) to be labelled” value is “gallbladder and gastrointestinal tract”; the Fluorescence sensitivity result is reported as “+++”; the Staining property result is reported as “+++”. In series [3], the Excitation wavelength λex came to 583 nm, the Fluorescence emission wavelength λem stood at 668 nm and the “Stokes shift (λem − λex)” value is recorded as 85.

For the molecule `O=C(O)CC[n+]1c(/C=C/c2ccc3c(c2)C2CCCC2N3c2ccc(C=C(c3ccccc3)c3ccccc3)cc2)sc2ccccc21` (stereo not shown) [Dye 73], the Storage stability entry in series [1] is “+++ (rates of change of the absorbance and the fluorescence intensity are less than 5%, and thus, the storage stability is highly excellent)”. Besides, in series [2], the “Site(s) to be labelled” value was “nose”, the Fluorescence sensitivity result is reported as “+++” and the Staining property entry is on record as “+++”. In series [3], the Excitation wavelength λex worked out at 598 nm, the Fluorescence emission wavelength λem was found to be 726 nm and the “Stokes shift (λem − λex)” value worked out at 128.

As to `COc1ccc(N2c3ccc(/C=C/C4=[N+](CCC(=O)O)c5ccccc5C4(C)C)cc3C3CCCC32)cc1` (stereo not shown) [Dye 76], in series [1], the Storage stability entry was “+++ (rates of change of the absorbance and the fluorescence intensity are less than 5%, and thus, the storage stability is highly excellent)”. In series [2], the “Site(s) to be labelled” value is “gastrointestinal tract and lower abdomen”; the Fluorescence sensitivity result is listed as “+++”; the Staining property result was “+++”. Besides, in series [3], the Excitation wavelength λex was found to be 592 nm, the Fluorescence emission wavelength λem is 671 nm and the “Stokes shift (λem − λex)” value is on record as 79.

As to `O=C(O)CN1C(=O)/C(=C\c2ccc3c(c2)C2CCCC2N3c2ccc(C=C(c3ccccc3)c3ccccc3)cc2)SC1=S` (stereo not shown) [Dye 88], the Storage stability result in series [1] was “+++ (rates of change of the absorbance and the fluorescence intensity are less than 5%, and thus, the storage stability is highly excellent)”. For the same molecule, in series [2], the “Site(s) to be labelled” value is listed as “nose”, the Fluorescence sensitivity result is “+++” and the Staining property entry was “+++”. Further, in series [3], the Excitation wavelength λex is 535 nm, the Fluorescence emission wavelength λem is 655 nm and the “Stokes shift (λem − λex)” value was determined as 120.
